Measurements taken from patent publication US7157457B2, “Compounds useful in the treatment of inflammatory diseases” (Glaxo Group Limited, priority 2000, dated 2007).
Where a name gives a salt, the structure may show the parent alone.

These compounds were tested against T1, CCR-3 (Homo sapiens, UniProt P51677) (assay: CCR-3 competition binding SPA ([125I]eotaxin)). Conditions: inhibition of [125I]eotaxin binding to membranes of K562 cells stably expressing CCR-3; mean of at least two experiments; read-out: CCR-3 Binding Assay (pIC50) (converted).
T1 sequence (P51677 1-355): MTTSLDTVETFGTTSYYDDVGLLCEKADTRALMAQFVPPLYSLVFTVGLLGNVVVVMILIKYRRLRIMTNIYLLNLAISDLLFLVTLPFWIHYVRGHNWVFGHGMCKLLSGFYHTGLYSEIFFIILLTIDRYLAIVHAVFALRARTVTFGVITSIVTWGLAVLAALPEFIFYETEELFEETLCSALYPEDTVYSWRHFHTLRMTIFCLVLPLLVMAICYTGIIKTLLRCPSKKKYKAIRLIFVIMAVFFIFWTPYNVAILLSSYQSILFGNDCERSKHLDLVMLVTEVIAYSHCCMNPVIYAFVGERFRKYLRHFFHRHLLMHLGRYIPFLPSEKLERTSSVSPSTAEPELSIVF
Design: expressed in transfected cells
Experimental: A CCR-3 competition binding SPA (scintillation proximity assay) was used to assess the affinity of novel compounds for CCR-3. Membranes prepared from K562 cells stably expressing CCR-3 (2.5 μg/well) were mixed with 0.25 mg/well wheat-germ agglutinin SPA beads (Amersham) and incubated in binding buffer (HEPES 50 mM, CaCl2 1 mM, MgCl2 5 mM, 0.5% BSA) at 4° C. for 1.5 hr. Following incubation, 20 pM of [^125I] eotaxin (Amersham) and increasing concentrations of compound (1 pM to 30 μM) were added and incubated in a 96 well plate for 2 hr at 22° C. then counted on a Microbeta plate counter. The total assay volume was 100 μl. Competition binding data were analysed by fitting the data with a four parameter logistic equation. Data are presented as the mean pIC50 values (negative logarithm of the concentration of compound which inhibits [^125I]eotaxin binding by 50%) from at least two experiments.

| IC50 | Compound |
| --- | --- |
| 0.0692 µM | Cc1ccc(CNC(=O)NCC2CN(Cc3ccc(Cl)c(Cl)c3)CCO2)cc1 (stereo not shown) [Example 3, N-{[4-(3,4-Dichlorobenzyl)morpholin-2-yl]methyl}-N′-(4-methylbenzyl)urea] |
| 0.661 µM | O=C(NCC1CN(Cc2ccc(Cl)c(Cl)c2)CCO1)Nc1ccc(Cl)cc1 (stereo not shown) [Example 14, N-(4-Chlorophenyl)-N′-{[4-(3,4-dichlorobenzyl)morpholin-2-yl]methyl}urea] |
| 0.0661 µM | O=C(NCc1ccc(Cl)cc1)NCC1CN(Cc2ccc(Cl)c(Cl)c2)CCO1 (stereo not shown) [Example 47, N-(4-Chlorobenzyl)-N′-{[4-(3,4-dichlorobenzyl)morpholin-2-yl]methyl}urea] |
| 0.00178 µM | CC(=O)Nc1cccc(CNC(=O)NCC2CN(Cc3ccc(Cl)c(Cl)c3)CCO2)c1 (stereo not shown) [Example 52, N-[3-({[({[4-(3,4-Dichlorobenzyl)morpholin-2-yl]methyl}amino)carbonyl]amino}methyl)phenyl]acetamide Formate] |
| 0.011 µM | NC(=O)c1ccc(CNC(=O)NC[C@H]2CN(Cc3ccc(Cl)c(Cl)c3)CCO2)cc1 [Example 54, 4-({[({[(2S)-4-(3,4-Dichlorobenzyl)morpholin-2-yl]methyl}amino)carbonyl]amino}methyl)benzamide] |
| 0.0158 µM | CNC(=O)c1ccc(CNC(=O)NC[C@H]2CN(Cc3ccc(Cl)c(Cl)c3)CCO2)cc1 [Example 149, 4-({[({[(2S)-4-(3,4-dichlorobenzyl)morpholin-2-yl]methyl}amino)carbonyl]amino}methyl)-N-methylbenzamide] |

The next lines start with the compound.

| Compound | IC50 |
| --- | --- |
| N#Cc1cccc(NC(=O)NCC2CN(Cc3ccc(Cl)c(Cl)c3)CCO2)c1 (stereo not shown) [Example 5, N-(3-Cyanophenyl)-N′-{[4-(3,4-dichlorobenzyl)morpholin-2-yl]methyl}urea] | 0.117 µM |
| O=C(NCC1CN(Cc2ccc(Cl)c(Cl)c2)CCO1)Nc1ccc(OC(F)F)cc1 (stereo not shown) [Example 16, N-{[4-(3,4-Dichlorobenzyl)morpholin-2-yl]methyl}-N′-[4-(difluoromethoxy)phenyl]urea] | 0.741 µM |
| O=C(NCC1CN(Cc2cccc(I)c2)CCO1)Nc1ccc(Cl)cc1 (stereo not shown) [Example 21] | 0.955 µM |
| O=C(NCC1CN(Cc2ccc(Cl)c(Cl)c2)CCO1)Nc1cccc(C(F)(F)F)c1 (stereo not shown) [Example 22, N-{[4-(3,4-Dichlorobenzyl)morpholin-2-yl]methyl}-N′-[3-(trifluoromethyl)phenyl]urea] | 0.955 µM |
| O=C(NCC1CN(Cc2ccc3ccccc3c2)CCO1)Nc1ccc(Cl)cc1 (stereo not shown) [Example 23, N-(4-Chlorophenyl)-N′-{[4-(2-naphthylmethyl)Morpholin-2-yl]methyl}urea] | 0.832 µM |
| N#Cc1ccc(NC(=O)NCC2CN(Cc3ccc(Cl)c(Cl)c3)CCO2)cc1 (stereo not shown) [Example 25, N-(4-Cyanophenyl)-N′-{[4-(3,4-dichlorobenzyl)morpholin-2-yl]methyl}urea] | 1 µM |
| O=C(NCC1CN(Cc2ccc(Cl)c(Cl)c2)CCO1)Nc1ccc(SC(F)(F)F)cc1 (stereo not shown) [Example 34, N-{[4-(3,4-Dichlorobenzyl)morpholin-2-yl]methyl}-N′-{4-[(trifluoromethyl)thio]phenyl}urea] | 2 µM |
| O=C(NCC1CN(Cc2ccc(Cl)s2)CCO1)Nc1ccc(Cl)cc1 (stereo not shown) [Example 37, N-(4-Chlorophenyl)-N′-({4-[(5-chlorothien-2-yl)methyl]morpholin-2-yl}methyl)urea] | 3.8 µM |
| C=Cc1ccc(CN2CCOC(CNC(=O)Nc3ccc(Cl)cc3)C2)cc1 (stereo not shown) [Example 38, N-(4-Chlorophenyl)-N′-{[4-(4-vinylbenzyl)morpholin-2-yl]methyl}urea] | 1.91 µM |
| CCOC(=O)C(c1ccccc1)N1CCOC(CNC(=O)Nc2ccc(Cl)cc2)C1 (stereo not shown) [Example 44, Ethyl {2-[({[(4-chlorophenyl)amino]carbonyl}amino)methyl]morpholin-4-yl}(phenyl)acetate] | 10.5 µM |
| Cn1nnc(CNC(=O)NC[C@H]2CN(Cc3ccc(Cl)c(Cl)c3)CCO2)n1 [Example 136, N-{[(2S)-4-(3,4-dichlorobenzyl)morpholin-2-yl]methyl}-N′-[(2-methyl-2H-tetraazol-5-yl)methyl]urea] | 0.0158 µM |

Each compound was assayed against T1, CCR-3 (assay: Eosinophil chemotaxis assay (eotaxin-induced)). Conditions: functional pKi; eosinophils from human peripheral blood; agonist eotaxin; read-out: CCR-3 Eosinophil Chemotaxis Assay (fpKi) (converted).
Type: cell-based
Design: Eosinophils were purified from human peripheral blood; endogenous in cells; host or cells: human peripheral blood eosinophils
Experimental: (b) Eosinophil Chemotaxis Assay.
Compounds were evaluated for their inhibitory effect on eosinophil chemotaxis. Eosinophils were purified from human peripheral blood by standard CD16 cell depletion using a Miltenyi cell separation column and a magnetic Super Macs magnet as previously described (Motegi & Kita, 1998; J. Immunology. 161:4340–6). Cells were re-suspended in RPMI 1640/10% FCS solution and incubated with calcein-AM (Molecular Probes) at 37° C. for 30 mins. Following incubation, the eosinophils were centrifuged at 400 g for 5 min and re-suspended in RPMI/FCS at 2.2 million/ml. Cells were then incubated in the presence of increasing concentration of compounds (1 pM to 30 μM) at 37° C. for 30 mins. For control responses cells were incubated with RPMI/FCS only. The agonist eotaxin (either a concentration response curve or for the functional inhibition curves an EC80 concentration) was added to the lower chamber of a 96 well chemotaxis plate (5 μm filter: Receptor Technologies). Eosinophils (50 μl of 2 million/ml cells) were added to the top chamber of the filter plate and incubated at 37° C. for 45 mins. Cells remaining on top of the chemotaxis filter were removed and the number of eosinophils which had migrated were quantified by reading the plate on a fluorescent plate reader. Inhibition curves for the effect of compounds on eosinophil chemotaxis were analysed by fitting the data with a four parameter logistic equation. Functional pKi values (fpKi) were generated using the equation below (Lazareno & Birdsall, 1995. Br. J. Pharmacol 109: 1110–9).

| Ki | Compound |
| --- | --- |
| 0.049 µM | COc1ccc(CNC(=O)NCC2CN(Cc3ccc(Cl)c(Cl)c3)CCO2)cc1 (stereo not shown) [Example 2, N-{[4-(3,4-Dichlorobenzyl)morpholin-2-yl]methyl}-N′-(4-methoxybenzyl)urea] |
| 0.0447 µM | Cc1cccc(CNC(=O)NCC2CN(Cc3ccc(Cl)c(Cl)c3)CCO2)c1 (stereo not shown) [Example 4, N-{[4-(3,4-Dichlorobenzyl)morpholin-2-yl]methyl}-N′-(3-methylbenzyl)urea] |
| 0.0389 µM | O=C(NCc1cccc(Cl)c1)NCC1CN(Cc2ccc(Cl)c(Cl)c2)CCO1 (stereo not shown) [Example 48, N-(3-Chlorobenzyl)-N′-{[4-(3,4-dichlorobenzyl)morpholin-2-yl]methyl}urea] |
| 0.0158 µM | NC(=O)c1ccc(CNC(=O)NC[C@H]2CN(Cc3ccc(Cl)c(Cl)c3)CCO2)cc1 [Example 54, 4-({[({[(2S)-4-(3,4-Dichlorobenzyl)morpholin-2-yl]methyl}amino)carbonyl]amino}methyl)benzamide] |
| 0.0158 µM | CNC(=O)c1ccc(CNC(=O)NC[C@H]2CN(Cc3ccc(Cl)c(Cl)c3)CCO2)cc1 [Example 149, 4-({[({[(2S)-4-(3,4-dichlorobenzyl)morpholin-2-yl]methyl}amino)carbonyl]amino}methyl)-N-methylbenzamide] |

Continued, compound first:

| Compound | Ki |
| --- | --- |
| O=C(NCCc1ccccc1)NCC1CN(Cc2ccc(Cl)c(Cl)c2)CCO1 (stereo not shown) [Example 8, N-{[4-(3,4-Dichlorobenzyl)morpholin-2-yl]methyl}-N′-(2-phenylethyl)urea] | 0.115 µM |
| O=C(NCC1CN(Cc2ccc(Cl)c(Cl)c2)CCO1)Nc1cccc(Cl)c1 (stereo not shown) [Example 13, N-(3-Chlorophenyl)-N′-{[4-(3,4-dichlorobenzyl)morpholin-2-yl]methyl}urea] | 0.407 µM |
| CSc1cccc(NC(=O)NCC2CN(Cc3ccc(Cl)c(Cl)c3)CCO2)c1 (stereo not shown) [Example 18, N-{[4-(3,4-Dichlorobenzyl)morpholin-2-yl]methyl}-N′-[3-(methylthio)phenyl]urea] | 1.45 µM |
| O=C(NCC1CN(Cc2cccc3ccccc23)CCO1)Nc1ccc(Cl)cc1 (stereo not shown) [Example 19, N-(4-Chlorophenyl)-N′-{[4-(1 naphthylmethyl)morpholin-2-yl]methyl}urea] | 1.1 µM |
| O=C(NCC1CN(Cc2cccc(Cl)c2)CCO1)Nc1ccc(Cl)cc1 (stereo not shown) [Example 26, N-{[4-(3-Chlorobenzyl)morpholin-2-yl]methyl}-N′-(4-chlorophenyl)urea] | 1.41 µM |
| C#CCNC(=O)NC[C@H]1CN(Cc2ccc(Cl)c(Cl)c2)CCO1 [Example 57, N-{[(2S)-4-(3,4-Dichlorobenzyl)morpholin-2-yl]methyl}-N′-prop-2-ynylurea] | 0.00977 µM |
| Cn1nnc(CNC(=O)NC[C@H]2CN(Cc3ccc(Cl)c(Cl)c3)CCO2)n1 [Example 136, N-{[(2S)-4-(3,4-dichlorobenzyl)morpholin-2-yl]methyl}-N′-[(2-methyl-2H-tetraazol-5-yl)methyl]urea] | 0.00501 µM |

The compounds below were run on ovalbumin sensitised guinea pigs (assay: Guinea-pig ovalbumin model: eosinophil infiltration and hyper-reactivity). Conditions: 0.2–20 mg/kg, oral route.
Type: in vivo
Experimental: (c) Guinea-pig Ovalbumin Model
Inhibition of Eosinophil Infiltration and Hyper-Reactivity in the Guinea Pig
In a method based on that described by Danahay et al., 1997, ovalbumin sensitised guinea pigs were dosed with mepyramine (30 mg kg^−1 ip) to protect against anaphylactic bronchospasm. Test compounds, dissolved in 10% DMSO and 90% PEG200, were given by the oral route, 30 minutes before ovalbumin challenge (10 minutes breathing of an aerosol generated from a 0.5% solution of ovalbumin). Hyper-reactivity of the airways to the thromboxane mimetic U46619, was measured 24 hours after ovalbumin challenge in unrestrained animals using a whole body plethysmograph (Buxco Ltd., USA). The guinea pigs were then sacrificed and the lungs lavaged. Total and differential leukocyte counts were then obtained for the bronchoalveolar lavage fluid and the percentage reduction in eosinophil accumulation determined (Sanjar et al., 1992). Data was presented as the inhibitory effect of the specified dose expressed as a percentage of the vehicle control response.

| Compound | inhibition of lung eosinophilia |
| --- | --- |
| O=C(NCC1CN(Cc2ccc(Cl)c(Cl)c2)CCO1)Nc1ccc(Cl)cc1 (stereo not shown) [Example 14, N-(4-Chlorophenyl)-N′-{[4-(3,4-dichlorobenzyl)morpholin-2-yl]methyl}urea] | showed inhibition |

Same assay, conditions: 0.2–20 mg/kg, oral route, hyper-reactivity to U46619

| Compound | inhibition of bronchial hyperreactivity |
| --- | --- |
| O=C(NCC1CN(Cc2ccc(Cl)c(Cl)c2)CCO1)Nc1ccc(Cl)cc1 (stereo not shown) [Example 14, N-(4-Chlorophenyl)-N′-{[4-(3,4-dichlorobenzyl)morpholin-2-yl]methyl}urea] | showed inhibition |
